Results on 47 molecules are retold here after US7718681B2, “5-(1,3-Diaryl-1H-pyrazol-4-ylmethylene)-thiazolidine,2,4-dione derivatives useful as anticancer agent” (Korea Research Institute of Chemical Technology, priority 2005, dated 2010).

For one data set, the target named is T1, CDC25B (Homo sapiens, UniProt P30305).
T1 construct: Catalytic domain of CDC25B (aa 378-566) was expressed and produced in E. coli into a GST fusion protein; GST; made in house; host or cells: E. coli
T1 sequence (P30305 378-566 isoform P30305-2): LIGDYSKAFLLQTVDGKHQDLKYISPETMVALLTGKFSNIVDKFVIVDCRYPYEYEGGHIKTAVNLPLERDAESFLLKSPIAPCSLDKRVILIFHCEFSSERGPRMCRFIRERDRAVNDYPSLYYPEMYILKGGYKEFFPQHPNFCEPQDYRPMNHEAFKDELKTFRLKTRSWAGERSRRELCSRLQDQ
The data set can be described thus: CDC25B enzyme assay. The data set is classed as biochemical. To be noted: catalytic domain of CDC25B (aa 378-566) GST fusion, 20 μm FDP, 1 hour at room temperature, fluorescence. The procedure: Catalytic domain of CDC25B (aa 378-566) was expressed and produced in E. coli into a GST fusion protein, which was used as zymogen. Enzyme assay was carried out on a 96-well plate, with the final reaction volume per well adjusted to 200 μL. 170 μL of a buffer solution (30 mM Tris buffer, pH 8.5, 75 mM NaCl, 0.67 mM EDTA, 1 mM DTT), 20 μL (0.2 μg) of CDC25B enzyme and 10 μL of the test compound dissolved in DMSO were added, so that the final concentration became 1 μg/mL CDC25B and 20 μm FDP. Measurement was made after culturing at room temperature for 1 hour. FDP and DTT were added to the buffer solution just before assay, so that a fresh status could be maintained. After 1 hour of culturing, fluorescence resultant from the enzymatic reaction was measured at 485 nm (excitation) and 538 nm (emission).
The screened compound was treated to a final concentration of 1, 2, 5 and 10 μm to obtain the % inhibition value. If the inhibitory effect was low (less than 50% at […]), the concentration of the compound was increased to 20 μm and the % inhibition value and the IC50 value were obtained.
As a reminder, the IC50 is the concentration at which inhibition is half-maximal. Low values mean greater potency, high ones weaker potency. For the molecule `CCN1C(=O)SC(=Cc2cn(-c3ccccc3)nc2-c2ccccc2Cl)C1=O` [Compound 2], the IC50 stood at 11400 nM.

On to `O=C1NC(=O)C(=Cc2cn(-c3ccccc3)nc2-c2cccc(Br)c2)S1` [Compound 3], for which the IC50 is 9450 nM.

`CCN1C(=O)S/C(=C\c2cn(-c3ccccc3)nc2-c2ccccc2Br)C1=O` [Compound 5] showed an IC50 of 8960 nM.

`CN1C(=O)S/C(=C\c2cn(-c3ccccc3)nc2-c2cccc([N+](=O)[O-])c2)C1=O` [Compound 15, 5-[3-(3-nitro)-1-phenyl-1H-pyrazol-4-ylmethylene]-3-methyl-thiazolidine-2,4-dione] showed an IC50 of 8280 nM.

Molecule `O=C1NC(=O)/C(=C/c2cn(-c3ccccc3)nc2-c2cccc(C(F)(F)F)c2)S1` [Compound 16, 5-[3-(3-trifluoromethyl)-1-phenyl-1H-pyrazol-4-ylmethylene]-thiazolidine-2,4-dione] came in with an IC50 of 230 nM.

In the case of `CCCOc1cc(OCCC)cc(-c2nn(-c3ccccc3)cc2/C=C2\SC(=O)NC2=O)c1` [Compound 25], the IC50 came to 1860 nM.

Molecule `CC(C)Oc1cc(OC(C)C)cc(-c2nn(-c3ccccc3)cc2/C=C2\SC(=O)NC2=O)c1` [Compound 30] came in with an IC50 of 5740 nM.

For the molecule `O=C1NC(=O)/C(=C/c2cn(-c3ccccc3)nc2-c2cc(OCC3CC3)cc(OCC3CC3)c2)S1` [Compound 35], the IC50 worked out at 1520 nM.

The molecule `O=C1NC(=O)/C(=C/c2cn(-c3ccccc3)nc2-c2cc(OC3CCCC3)cc(OC3CCCC3)c2)S1` [Compound 41] had an IC50 of 540 nM.

The molecule `O=C1NC(=O)/C(=C/c2cn(-c3ccccc3)nc2-c2ccc(OC(F)F)c(OCC3CC3)c2)S1` [Compound 52] yielded an IC50 of 2830 nM.

In the case of `O=C1NC(=O)C(=Cc2cn(-c3ccccc3)nc2-c2cc(F)cc(F)c2)S1` [Compound 58, 5-[3-(3,5-difluoro-phenyl)-1-phenyl-1H-pyrazol-4-ylmethylene]-thiazolidine-2,4-dione], the IC50 is 5790 nM.

Regarding `O=C1NC(=O)/C(=C/c2cn(-c3ccccc3)nc2-c2cc(OCc3ccccc3)cc(OCc3ccccc3)c2)S1` [Compound 62], the IC50 stood at 230 nM.

`O=C1NC(=O)/C(=C/c2cn(-c3ccc([N+](=O)[O-])cc3)nc2-c2cc(OCc3ccccc3)cc(OCc3ccccc3)c2)S1` [Compound 65] came in with an IC50 of 210 nM.

For the molecule `COc1c(Cl)cccc1-c1nn(-c2ccccc2)cc1/C=C1\SC(=O)NC1=O` [Compound 66], the IC50 was found to be 10600 nM.

On to `CCOc1c(Cl)cccc1-c1nn(-c2ccccc2)cc1/C=C1\SC(=O)NC1=O` [Compound 67], for which the IC50 came out at 3410 nM.

With `CCOc1c(Cl)cccc1-c1nn(-c2ccccc2)cc1/C=C1\SC(=O)N(CC)C1=O` [Compound 69], inhibition was half-maximal at 7200 nM (IC50).

Regarding `CCCOc1c(Cl)cccc1-c1nn(-c2ccccc2)cc1/C=C1\SC(=O)NC1=O` [Compound 70], the IC50 stood at 4050 nM.

The molecule `CCOc1ccc(-c2nn(-c3ccccc3)cc2C=C2SC(=O)NC2=O)cc1Br` [Compound 77, 5-[3-(3-bromo-4-ethoxy-phenyl)-1-phenyl-1H-pyrazol-4-ylmethylene]-thiazolidine-2,4-dione] registered an IC50 of 5650 nM.

`CCCOc1ccc(-c2nn(-c3ccccc3)cc2/C=C2\SC(=O)NC2=O)cc1Br` [Compound 82]: the half-inhibitory concentration (IC50) stood at 2810 nM.

`CCCOc1ccc(-c2nn(-c3ccccc3)cc2/C=C2\SC(=O)N(CCC)C2=O)cc1Br` [Compound 85] returned an IC50 of 2020 nM.

As to `C=CCOc1ccc(-c2nn(-c3ccccc3)cc2/C=C2\SC(=O)NC2=O)cc1Br` [Compound 88], the IC50 was 2210 nM.

`O=C1NC(=O)/C(=C/c2cn(-c3ccccc3)nc2-c2ccc(OCC3CC3)c(Br)c2)S1` [Compound 94] showed an IC50 of 1630 nM.

As for `C#CCOc1ccc(-c2nn(-c3ccccc3)cc2/C=C2\SC(=O)NC2=O)cc1Br` [Compound 100], the IC50 turned out to be 2980 nM.

As to `COc1ccc(-c2nn(-c3ccccc3)cc2/C=C2\SC(=O)NC2=O)cc1I` [Compound 111], 3250 nM corresponded to half-maximal inhibition (IC50).

For `CCOc1ccc(-c2nn(-c3ccccc3)cc2C=C2SC(=O)NC2=O)cc1I` [Compound 115], half-maximal inhibition (IC50) was put at 570 nM.

As to `CCOc1ccc(-c2nn(-c3ccccc3)cc2/C=C2\SC(=O)N(CC)C2=O)cc1I` [Compound 117], the midpoint of inhibition, the IC50, lay at 590 nM.

Molecule `CCCN1C(=O)S/C(=C\c2cn(-c3ccccc3)nc2-c2ccc(OCC)c(I)c2)C1=O` [Compound 118] yielded an IC50 of 9250 nM.

For `CCOc1ccc(-c2nn(-c3ccccc3)cc2C=C2SC(=O)NC2=O)cc1I` [Compound 121], it took 2600 nM to reach half-maximal inhibition (IC50).

`CCCOc1ccc(-c2nn(-c3ccccc3)cc2/C=C2\SC(=O)NC2=O)cc1I` [Compound 122] registered an IC50 of 360 nM.

On to `C=CCOc1ccc(-c2nn(-c3ccccc3)cc2/C=C2\SC(=O)N(CC=C)C2=O)cc1I` [Compound 132], for which the half-maximal inhibitory concentration (IC50) amounted to 3600 nM.

`C#CCN1C(=O)S/C(=C\c2cn(-c3ccccc3)nc2-c2ccc(OCC=C)c(I)c2)C1=O` [Compound 133]: the IC50 was determined as 4990 nM.

On to `COc1ccc(-c2nn(-c3ccccc3)cc2/C=C2\SC(=O)NC2=O)cc1C(C)C` [Compound 136], for which half-maximal inhibition (IC50) was put at 2060 nM.

`CCCOc1ccc(-c2nn(-c3ccccc3)cc2/C=C2\SC(=O)NC2=O)cc1C(C)C` [Compound 141] came in with an IC50 of 2240 nM.

Regarding `CCCOc1ccc(-c2nn(-c3ccccc3)cc2/C=C2\SC(=O)NC2=O)cc1C(C)(C)C` [Compound 142], the IC50 worked out at 1480 nM.

Molecule `COc1c(Br)cc(-c2nn(-c3ccccc3)cc2/C=C2\SC(=O)NC2=O)cc1Br` [Compound 145] had a half-inhibitory concentration (IC50) of 1840 nM.

Regarding `CCOc1c(Br)cc(-c2nn(-c3ccccc3)cc2/C=C2\SC(=O)NC2=O)cc1Br` [Compound 151], the IC50 came out at 1400 nM.

The molecule `CCOc1c(Br)cc(-c2nn(-c3ccccc3)cc2/C=C2\SC(=O)N(CC)C2=O)cc1Br` [Compound 153] returned an IC50 of 1360 nM.

The molecule `CCCOc1c(Br)cc(-c2nn(-c3ccccc3)cc2/C=C2\SC(=O)NC2=O)cc1Br` [Compound 163] came in with an IC50 of 1500 nM.

In turn, `C=CCOc1c(Br)cc(-c2nn(-c3ccccc3)cc2/C=C2\SC(=O)NC2=O)cc1Br` [Compound 164] yielded an IC50 of 170 nM.

The molecule `C#CCN1C(=O)S/C(=C\c2cn(-c3ccccc3)nc2-c2cc(Br)c(OCC=C)c(Br)c2)C1=O` [Compound 169] displayed an IC50 of 7140 nM.

In turn, `CCN1C(=O)S/C(=C\c2cn(-c3ccccc3)nc2-c2cc(Br)c(OCC3CC3)c(Br)c2)C1=O` [Compound 173] yielded an IC50 of 2350 nM.

For the molecule `O=C1NC(=O)/C(=C/c2cn(-c3ccccc3)nc2-c2cc(Br)c(OC(F)F)c(Br)c2)S1` [Compound 178], the IC50 came out at 710 nM.

With `C=CCN1C(=O)S/C(=C\c2cn(-c3ccccc3)nc2-c2cc(Br)c(OC(F)F)c(Br)c2)C1=O` [Compound 182], 13600 nM corresponded to half-maximal inhibition (IC50).

Take `COc1c(C(C)C)cc(-c2nn(-c3ccccc3)cc2/C=C2\SC(=O)NC2=O)cc1C(C)C` [Compound 184]: the IC50 worked out at 3660 nM.

`CCCOc1c(C(C)C)cc(-c2nn(-c3ccccc3)cc2/C=C2\SC(=O)NC2=O)cc1C(C)C` [Compound 190] displayed an IC50 of 1090 nM.

In turn, `CC(C)(C)c1cc(-c2nn(-c3ccccc3)cc2/C=C2\SC(=O)NC2=O)cc(C(C)(C)C)c1O` [Compound 192] gave an IC50 of 3990 nM.

For another data set, the system named is C33A human uterine cancer cell line.
Test: not given
Conditions: mouse, in vivo.
Take `N.N.[Cl][Pt][Cl]` [cisplatin, reference compound]: the “negative responses (reduced motion, lack of appetite)” value is listed as “reduced motion or lack of appetite”.
